The kinase profiling compilation of Christmann-Franck et al. (2016)

How the values were obtained:
Assay in all cases: KINOMEscan competition binding
Conditions in all cases: compound 10.0 µM
MAP3K10 (human) = MAP3K10 (human) (UniProt Q02779)
WEE1 (human) = WEE1 (human) (UniProt P30291)
AKT3 (human) = AKT3 (human) (UniProt Q9Y243)
CSK (human) = CSK (human) (UniProt P41240)
ACVR1 (human) = ACVR1 (human) (UniProt Q04771)
OXSR1 (human) = OXSR1 (human) (UniProt O95747)
EPHA1 (human) = EPHA1 (human) (UniProt P21709)
MLTK (human) = MLTK (human) (UniProt Q9NYL2)
TXK (human) = TXK (human) (UniProt P42681)
CSNK1G3 (human) = CSNK1G3 (human) (UniProt Q9Y6M4)
MAP2K3 (human) = MAP2K3 (human) (UniProt P46734)
PRKACA (human) = PRKACA (human) (UniProt P17612)
CASK (human) = CASK (human) (UniProt O14936)
[1] = system: PIK3CA (human), P42336 [H1047L]
CDK17 (human) = CDK17 (human) (UniProt Q00537)
PRKCH (human) = PRKCH (human) (UniProt P24723)
STK32A (human) = STK32A (human) (UniProt Q8WU08)
IRAK1 (human) = IRAK1 (human) (UniProt P51617)
EPHA3 (human) = EPHA3 (human) (UniProt P29320)
EPHB4 (human) = EPHB4 (human) (UniProt P54760)
ROS1 (human) = ROS1 (human) (UniProt P08922)
[2] = target: JAK2 JH1 catalytic (human) (UniProt O60674)
RPS6KA2 KD2 (human) = RPS6KA2 KD2 (human) (UniProt Q15349)
PDGFRA (human) = PDGFRA (human) (UniProt P16234)
TLK1 (human) = TLK1 (human) (UniProt Q9UKI8)
RPS6KA5 KD2 (human) = RPS6KA5 KD2 (human) (UniProt O75582)
RPS6KA6 KD2 (human) = RPS6KA6 KD2 (human) (UniProt Q9UK32)
CIT (human) = CIT (human) (UniProt O14578)
PI4KB (human) = PI4KB (human) (UniProt Q9UBF8)
PDPK1 (human) = PDPK1 (human) (UniProt O15530)
RIPK4 (human) = RIPK4 (human) (UniProt P57078)
[3] = system: EGFR (human), P00533 [A750P; 747-749 del]
RPS6KB1 (human) = RPS6KB1 (human) (UniProt P23443)
PIP5K1C (human) = PIP5K1C (human) (UniProt O60331)
CDK11B (human) = CDK11B (human) (UniProt P21127)
MYLK4 (human) = MYLK4 (human) (UniProt Q86YV6)
PRKD1 (human) = PRKD1 (human) (UniProt Q15139)
SGK110 (human) = SGK110 (human) (UniProt P0C264)
EIF2AK1 (human) = EIF2AK1 (human) (UniProt Q9BQI3)
MAPK10 (human) = MAPK10 (human) (UniProt P53779)
Sequence of MAPK10 (human) (P53779 whole entry, looked up): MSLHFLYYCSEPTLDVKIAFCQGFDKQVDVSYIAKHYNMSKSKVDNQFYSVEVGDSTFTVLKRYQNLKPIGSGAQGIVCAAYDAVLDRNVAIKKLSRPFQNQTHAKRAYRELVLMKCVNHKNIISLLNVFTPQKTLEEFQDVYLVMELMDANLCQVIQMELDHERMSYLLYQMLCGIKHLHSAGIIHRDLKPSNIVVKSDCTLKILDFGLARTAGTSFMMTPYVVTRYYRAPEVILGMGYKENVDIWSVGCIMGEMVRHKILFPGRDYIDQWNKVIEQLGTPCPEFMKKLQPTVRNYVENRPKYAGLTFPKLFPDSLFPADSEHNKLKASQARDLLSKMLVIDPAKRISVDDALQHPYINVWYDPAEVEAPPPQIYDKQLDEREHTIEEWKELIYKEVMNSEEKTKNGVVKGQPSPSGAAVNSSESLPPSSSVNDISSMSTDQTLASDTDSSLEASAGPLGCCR

Sequence of PDPK1 (human) (O15530 whole entry, looked up): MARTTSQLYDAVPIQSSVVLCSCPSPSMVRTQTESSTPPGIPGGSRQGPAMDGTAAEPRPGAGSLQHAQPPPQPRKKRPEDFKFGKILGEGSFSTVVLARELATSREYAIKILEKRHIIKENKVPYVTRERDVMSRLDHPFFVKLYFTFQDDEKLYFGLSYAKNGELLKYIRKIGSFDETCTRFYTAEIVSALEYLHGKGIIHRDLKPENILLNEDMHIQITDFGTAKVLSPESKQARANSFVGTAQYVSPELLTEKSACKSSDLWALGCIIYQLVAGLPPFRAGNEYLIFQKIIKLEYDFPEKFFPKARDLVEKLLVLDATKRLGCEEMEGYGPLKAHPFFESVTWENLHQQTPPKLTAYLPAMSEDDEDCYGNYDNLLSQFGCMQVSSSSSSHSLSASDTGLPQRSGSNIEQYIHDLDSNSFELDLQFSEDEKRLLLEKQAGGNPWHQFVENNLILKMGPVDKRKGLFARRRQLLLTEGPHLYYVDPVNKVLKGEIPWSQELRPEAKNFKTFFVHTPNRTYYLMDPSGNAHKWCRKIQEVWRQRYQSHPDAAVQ
Sequence of PIK3CA (human), P42336 [H1047L] (P42336 whole entry H1047L, looked up): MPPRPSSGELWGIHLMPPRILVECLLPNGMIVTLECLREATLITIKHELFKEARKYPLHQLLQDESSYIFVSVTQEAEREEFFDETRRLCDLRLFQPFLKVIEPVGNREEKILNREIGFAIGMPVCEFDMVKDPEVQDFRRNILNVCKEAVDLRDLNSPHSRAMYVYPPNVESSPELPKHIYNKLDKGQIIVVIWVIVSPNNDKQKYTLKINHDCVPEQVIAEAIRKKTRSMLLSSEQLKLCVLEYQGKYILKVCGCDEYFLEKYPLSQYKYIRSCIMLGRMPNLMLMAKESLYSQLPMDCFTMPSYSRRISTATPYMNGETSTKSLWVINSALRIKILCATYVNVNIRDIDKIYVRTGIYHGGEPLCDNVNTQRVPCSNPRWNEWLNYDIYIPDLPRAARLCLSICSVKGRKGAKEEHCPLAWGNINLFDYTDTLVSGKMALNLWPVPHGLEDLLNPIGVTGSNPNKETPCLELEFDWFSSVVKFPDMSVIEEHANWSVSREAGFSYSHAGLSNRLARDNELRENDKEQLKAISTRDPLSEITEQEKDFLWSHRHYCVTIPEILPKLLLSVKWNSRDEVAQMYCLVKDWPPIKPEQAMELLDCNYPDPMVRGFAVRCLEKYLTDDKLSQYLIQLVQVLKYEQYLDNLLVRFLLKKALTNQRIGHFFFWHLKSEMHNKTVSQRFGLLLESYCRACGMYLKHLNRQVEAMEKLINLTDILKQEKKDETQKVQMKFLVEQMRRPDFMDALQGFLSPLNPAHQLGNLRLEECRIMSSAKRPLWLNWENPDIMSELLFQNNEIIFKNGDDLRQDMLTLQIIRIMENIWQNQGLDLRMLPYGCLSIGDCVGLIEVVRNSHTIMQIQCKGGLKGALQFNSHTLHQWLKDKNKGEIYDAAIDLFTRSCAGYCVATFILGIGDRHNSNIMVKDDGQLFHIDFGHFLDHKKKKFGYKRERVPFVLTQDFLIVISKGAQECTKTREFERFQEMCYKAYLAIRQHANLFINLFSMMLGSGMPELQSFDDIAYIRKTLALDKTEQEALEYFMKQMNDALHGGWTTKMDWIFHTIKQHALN
Sequence of EPHA1 (human) (P21709 whole entry, looked up): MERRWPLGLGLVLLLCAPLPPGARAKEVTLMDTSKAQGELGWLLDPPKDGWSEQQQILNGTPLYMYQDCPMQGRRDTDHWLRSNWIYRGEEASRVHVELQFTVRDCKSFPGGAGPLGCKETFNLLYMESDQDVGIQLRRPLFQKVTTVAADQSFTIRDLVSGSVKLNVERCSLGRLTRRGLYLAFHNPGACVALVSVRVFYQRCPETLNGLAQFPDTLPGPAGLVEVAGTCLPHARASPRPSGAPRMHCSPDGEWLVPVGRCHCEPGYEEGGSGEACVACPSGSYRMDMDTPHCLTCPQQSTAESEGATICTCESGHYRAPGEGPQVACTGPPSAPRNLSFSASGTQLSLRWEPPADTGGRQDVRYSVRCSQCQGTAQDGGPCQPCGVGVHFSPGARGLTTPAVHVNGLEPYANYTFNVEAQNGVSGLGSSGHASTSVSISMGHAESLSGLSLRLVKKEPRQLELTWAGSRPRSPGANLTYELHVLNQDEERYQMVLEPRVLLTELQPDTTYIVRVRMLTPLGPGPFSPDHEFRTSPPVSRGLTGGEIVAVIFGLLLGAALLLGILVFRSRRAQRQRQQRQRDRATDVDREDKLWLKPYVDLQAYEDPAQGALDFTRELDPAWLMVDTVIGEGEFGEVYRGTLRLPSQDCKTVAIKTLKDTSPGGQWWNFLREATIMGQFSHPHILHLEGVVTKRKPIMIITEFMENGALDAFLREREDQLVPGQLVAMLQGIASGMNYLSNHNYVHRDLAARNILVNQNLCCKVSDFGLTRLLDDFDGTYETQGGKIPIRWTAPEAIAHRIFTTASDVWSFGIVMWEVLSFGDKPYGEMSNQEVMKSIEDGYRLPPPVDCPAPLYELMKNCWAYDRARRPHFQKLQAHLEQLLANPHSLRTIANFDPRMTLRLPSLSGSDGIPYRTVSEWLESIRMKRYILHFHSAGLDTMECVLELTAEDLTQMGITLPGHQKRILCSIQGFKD
Sequence of ACVR1 (human) (Q04771 whole entry, looked up): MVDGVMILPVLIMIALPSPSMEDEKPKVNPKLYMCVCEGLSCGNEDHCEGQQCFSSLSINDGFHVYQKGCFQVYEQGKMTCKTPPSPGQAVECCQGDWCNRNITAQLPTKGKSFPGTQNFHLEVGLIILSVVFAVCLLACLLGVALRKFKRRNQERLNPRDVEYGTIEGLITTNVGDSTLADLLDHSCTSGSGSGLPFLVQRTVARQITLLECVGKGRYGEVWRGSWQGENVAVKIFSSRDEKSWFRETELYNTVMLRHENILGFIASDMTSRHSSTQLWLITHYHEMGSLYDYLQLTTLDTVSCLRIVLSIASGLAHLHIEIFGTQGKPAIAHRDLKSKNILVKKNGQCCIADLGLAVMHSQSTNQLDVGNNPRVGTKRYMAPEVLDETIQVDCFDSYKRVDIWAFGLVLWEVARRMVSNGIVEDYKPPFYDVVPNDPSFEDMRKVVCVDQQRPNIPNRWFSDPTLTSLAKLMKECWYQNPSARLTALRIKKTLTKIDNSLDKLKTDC
Sequence of CSK (human) (P41240 whole entry, looked up): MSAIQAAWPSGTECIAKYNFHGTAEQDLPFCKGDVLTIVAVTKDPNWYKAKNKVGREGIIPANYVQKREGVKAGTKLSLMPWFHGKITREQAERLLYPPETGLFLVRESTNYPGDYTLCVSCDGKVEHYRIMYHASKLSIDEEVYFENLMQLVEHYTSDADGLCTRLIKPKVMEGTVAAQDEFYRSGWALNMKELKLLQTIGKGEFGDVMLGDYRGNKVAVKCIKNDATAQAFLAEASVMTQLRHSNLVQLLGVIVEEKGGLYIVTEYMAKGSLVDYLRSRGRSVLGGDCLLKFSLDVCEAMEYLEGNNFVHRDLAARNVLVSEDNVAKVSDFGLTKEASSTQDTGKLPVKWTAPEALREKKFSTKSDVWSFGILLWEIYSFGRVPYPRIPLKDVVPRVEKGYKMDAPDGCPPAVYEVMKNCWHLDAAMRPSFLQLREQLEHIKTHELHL
Sequence of MAP2K3 (human) (P46734 whole entry, looked up): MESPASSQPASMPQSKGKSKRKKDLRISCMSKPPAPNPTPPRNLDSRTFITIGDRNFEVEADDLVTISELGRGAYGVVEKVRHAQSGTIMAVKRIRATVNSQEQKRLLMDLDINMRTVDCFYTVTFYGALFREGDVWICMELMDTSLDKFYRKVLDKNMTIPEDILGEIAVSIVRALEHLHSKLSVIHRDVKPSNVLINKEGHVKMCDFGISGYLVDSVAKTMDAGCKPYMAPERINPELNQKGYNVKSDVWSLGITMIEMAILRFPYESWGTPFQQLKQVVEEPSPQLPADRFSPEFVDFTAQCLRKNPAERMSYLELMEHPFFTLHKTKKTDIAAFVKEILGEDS
Sequence of CSNK1G3 (human) (Q9Y6M4 whole entry, looked up): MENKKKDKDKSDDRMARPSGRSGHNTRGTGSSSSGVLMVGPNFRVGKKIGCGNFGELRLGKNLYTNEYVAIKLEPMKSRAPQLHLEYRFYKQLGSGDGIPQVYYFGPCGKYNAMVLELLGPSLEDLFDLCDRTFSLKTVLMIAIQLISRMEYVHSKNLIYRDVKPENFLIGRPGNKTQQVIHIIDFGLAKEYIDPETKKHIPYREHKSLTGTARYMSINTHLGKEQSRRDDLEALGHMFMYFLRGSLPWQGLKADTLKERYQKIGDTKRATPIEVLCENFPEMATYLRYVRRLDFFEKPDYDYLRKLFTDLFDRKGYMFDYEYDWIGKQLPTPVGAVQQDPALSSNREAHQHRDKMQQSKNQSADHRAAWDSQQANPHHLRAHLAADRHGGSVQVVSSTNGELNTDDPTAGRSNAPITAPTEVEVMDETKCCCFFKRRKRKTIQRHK

Structure (SMILES) | kinase still bound, per cent of control (MAP3K10 (human)) [%] | kinase still bound, per cent of control (WEE1 (human)) [%] | kinase still bound, per cent of control (AKT3 (human)) [%] | kinase still bound, per cent of control (CSK (human)) [%] | kinase still bound, per cent of control (ACVR1 (human)) [%] | kinase still bound, per cent of control (OXSR1 (human)) [%] | kinase still bound, per cent of control (EPHA1 (human)) [%] | kinase still bound, per cent of control (MLTK (human)) [%] | kinase still bound, per cent of control (TXK (human)) [%] | kinase still bound, per cent of control (CSNK1G3 (human)) [%] | kinase still bound, per cent of control (MAP2K3 (human)) [%] | kinase still bound, per cent of control (PRKACA (human)) [%] | kinase still bound, per cent of control (CASK (human)) [%] | kinase still bound, per cent of control [1] [%] | kinase still bound, per cent of control (CDK17 (human)) [%] | kinase still bound, per cent of control (PRKCH (human)) [%] | kinase still bound, per cent of control (STK32A (human)) [%] | kinase still bound, per cent of control (IRAK1 (human)) [%] | kinase still bound, per cent of control (EPHA3 (human)) [%] | kinase still bound, per cent of control (EPHB4 (human)) [%] | other results
O=c1[nH]c2ccccc2n1C1CCN(Cc2ccc(-c3nc4cc5[nH]cnc5cc4nc3-c3ccccc3)cc2)CC1 | 84 | 99 | 100 | 93 | 92 | 81 | 100 | 92 | 87 | 93 | 100 | 100 | 79 | 69 | 100 | 69 | 66 | 76 | 82 | 100 | kinase still bound, per cent of control (ROS1 (human)): 50%; kinase still bound, per cent of control [2]: 67%; kinase still bound, per cent of control (RPS6KA2 KD2 (human)): 100%; kinase still bound, per cent of control (PDGFRA (human)): 83%; kinase still bound, per cent of control (TLK1 (human)): 100%; kinase still bound, per cent of control (RPS6KA5 KD2 (human)): 99%; kinase still bound, per cent of control (RPS6KA6 KD2 (human)): 100%; kinase still bound, per cent of control (CIT (human)): 47%; kinase still bound, per cent of control (PI4KB (human)): 60%; kinase still bound, per cent of control (PDPK1 (human)): 93%; kinase still bound, per cent of control (RIPK4 (human)): 87%; kinase still bound, per cent of control [3]: 77%; kinase still bound, per cent of control (RPS6KB1 (human)): 84%; kinase still bound, per cent of control (PIP5K1C (human)): 29%; kinase still bound, per cent of control (CDK11B (human)): 97%; kinase still bound, per cent of control (MYLK4 (human)): 64%; kinase still bound, per cent of control (PRKD1 (human)): 86%; kinase still bound, per cent of control (SGK110 (human)): 81%; kinase still bound, per cent of control (EIF2AK1 (human)): 87%; kinase still bound, per cent of control (MAPK10 (human)): 71%
N#Cc1cc(-c2ccnc(Nc3ccc(-n4cnc(-c5cccnc5)n4)cc3)n2)cc(N2CCOCC2)c1 | 72 | 82 | 100 | 66 | 23 | 96 | 42 | 17 | 60 | 100 | 18 | 89 | 78 | 100 | 18 | 83 | 100 | 9.3 | 58 | 70 | kinase still bound, per cent of control (ROS1 (human)): 17%; kinase still bound, per cent of control [2]: 0%; kinase still bound, per cent of control (RPS6KA2 KD2 (human)): 75%; kinase still bound, per cent of control (PDGFRA (human)): 1.2%; kinase still bound, per cent of control (TLK1 (human)): 39%; kinase still bound, per cent of control (RPS6KA5 KD2 (human)): 100%; kinase still bound, per cent of control (RPS6KA6 KD2 (human)): 88%; kinase still bound, per cent of control (CIT (human)): 0.9%; kinase still bound, per cent of control (PI4KB (human)): 100%; kinase still bound, per cent of control (PDPK1 (human)): 100%; kinase still bound, per cent of control (RIPK4 (human)): 53%; kinase still bound, per cent of control [3]: 62%; kinase still bound, per cent of control (RPS6KB1 (human)): 52%; kinase still bound, per cent of control (PIP5K1C (human)): 100%; kinase still bound, per cent of control (CDK11B (human)): 32%; kinase still bound, per cent of control (MYLK4 (human)): 26%; kinase still bound, per cent of control (PRKD1 (human)): 66%; kinase still bound, per cent of control (SGK110 (human)): 78%; kinase still bound, per cent of control (EIF2AK1 (human)): 100%; kinase still bound, per cent of control (MAPK10 (human)): 0.15%
C=CC(=O)Nc1ccc(C(=O)c2sc(Nc3ccc(N4CCN(C)CC4)cc3OC)nc2N)cc1 | 91 | 100 | 73 | 87 | 100 | 10 | 100 | 100 | 100 | 24 | 69 | 100 | 100 | 100 | 78 | 100 | 52 | 41 | 80 | 100 | kinase still bound, per cent of control (ROS1 (human)): 38%; kinase still bound, per cent of control [2]: 74%; kinase still bound, per cent of control (RPS6KA2 KD2 (human)): 0.25%; kinase still bound, per cent of control (PDGFRA (human)): 100%; kinase still bound, per cent of control (TLK1 (human)): 69%; kinase still bound, per cent of control (RPS6KA5 KD2 (human)): 7%; kinase still bound, per cent of control (RPS6KA6 KD2 (human)): 0.7%; kinase still bound, per cent of control (CIT (human)): 13%; kinase still bound, per cent of control (PI4KB (human)): 18%; kinase still bound, per cent of control (PDPK1 (human)): 100%; kinase still bound, per cent of control (RIPK4 (human)): 89%; kinase still bound, per cent of control [3]: 61%; kinase still bound, per cent of control (RPS6KB1 (human)): 100%; kinase still bound, per cent of control (PIP5K1C (human)): 44%; kinase still bound, per cent of control (CDK11B (human)): 89%; kinase still bound, per cent of control (MYLK4 (human)): 66%; kinase still bound, per cent of control (PRKD1 (human)): 39%; kinase still bound, per cent of control (SGK110 (human)): 100%; kinase still bound, per cent of control (EIF2AK1 (human)): 100%; kinase still bound, per cent of control (MAPK10 (human)): 6.4%
